Publication PMC6437269, “OXA-48-Mediated Ceftazidime-Avibactam Resistance Is Associated with Evolutionary Trade-Offs” (mSphere, 2019)
≈ marks a conversion by molar mass, not a printed value. Like-named read-outs stand apart in the source and are kept apart here.

Columns and labels:
[1] = system: MP104 (E. coli TOP10 expressing native OXA-48); experiment: MIC determination, TOP10 expressing native OXA-48 (MP104); format: cell-based; conditions: Escherichia coli; Table 3; MP104, native OXA-48 in pCR-blunt II TOPO
Description: (§1) For MIC determination, single colonies were suspended in 0.9% saline buffer to a 0.5 McFarland standard and further diluted 1:100 in MH broth. Fifty microliters of the bacterial suspension was loaded onto in-house-designed and premade Sensititre microtiter plates (TREK Diagnostic Systems/Thermo Fisher Scientific, East Grinstead, United Kingdom). The plates were incubated for 20 h at 37°C. Antibiotic susceptibility testing was performed in duplicates.
For a functional resistance profile, the native and mutated blaOXA-48 genes were cloned in the pCR-blunt II-TOPO vector (Invitrogen, CA) and expressed in E. coli TOP10 (Invitrogen, CA). The PCR product was obtained by Phusion High Fidelity PCR mastermix with High Fidelity buffer (New England Biolabs, MA) and preOXA-48 primers ([61]). Transformants were selected on LB agar plates containing 50 or 100 mg/liter ampicillin. Insertion size was verified by Sanger sequencing using M13 forward (5′-[…]-3′) and reverse (5′-[…]-3′) primers.

[2] = system: MP105 (E. coli TOP10 expressing OXA-48:P68A); experiment: microbe, parasite or virus in culture; format: cell-based; conditions: Escherichia coli; Table 3; MP105, OXA-48:P68A in pCR-blunt II TOPO
[3] = system: MP108 (MP100 transformed with p50579417_3_OXA-48-CAZ-AVI); experiment: MIC determination, MP108 (MG1655 with CAZ-AVI-adapted plasmid); format: cell-based; conditions: Escherichia coli; Table 6; MP108, adapted plasmid p50579417-OXA-48-CAZ-AVI
Description: as §1

E. coli TOP10 = experiment: microbe, parasite or virus in culture; format: cell-based; conditions: Escherichia coli
Description: as §1

E. coli MG1655 (MP100) = experiment: microbe, parasite or virus in culture; format: cell-based, Escherichia coli; conditions: Escherichia coli, MG1655
Description: as §1

[4] = system: MP101 (MP100 transformed with p50579417_3_OXA-48); experiment: MIC determination, MP101 (MG1655 with native OXA-48 plasmid); format: cell-based, Escherichia coli; conditions: Escherichia coli; Table 6; MP101, native plasmid; read-out: MIC
Source text: Mueller-Hinton (MH) agar and broth were purchased from Thermo Fisher Scientific (East Grinstead, United Kingdom). Luria-Bertani (LB) broth, LB agar, ampicillin, amoxicillin, cefepime, CAZ, imipenem, meropenem, piperacillin, and tazobactam were obtained from Sigma-Aldrich (St. Louis, MO). Nitrocefin was purchased from Merck (Darmstadt, Germany). The characteristics of the clinical E. coli strain 50579417 harboring the OXA-48 plasmid (p50579417_3_OXA-48) have been described previously ([61], [62]). The plasmid p50579417_3_OXA-48 was conjugated into rifampin-resistant E. coli TOP10 and subsequently isolated using a plasmid mini-purification kit (Qiagen, Germany). E. coli MG1655 (DA4201) was electroporated with p50579417_3_OXA-48 as published previously ([63]). Transformants positive for blaOXA-48 were checked by PCR using REDTaq ready mix (Sigma-Aldrich, St. Louis, MO) and preOXA-48 primers ([61]).
as §1

[5] = system: MP107 (MP100 transformed with p50579417_3_OXA-48-CAZ); experiment: MIC determination, MP107 (MG1655 with CAZ-adapted plasmid); format: cell-based; conditions: Escherichia coli; Table 6; MP107, adapted plasmid p50579417-OXA-48-CAZ
Description: as §1

OXA-48:P68A = OXA-48:P68A (Klebsiella pneumoniae, UniProt Q6XEC0, P68A); experiment: Steady-state enzyme kinetics, OXA-48:P68A; format: biochemical; conditions: substrate hydrolysis, 25°C, pH 7.0, error = 95% CI
[6] = system: CC(C)(O/N=C(\C(=O)N[C@@H]1C(=O)N2C(C(=O)[O-])=C(C[n+]3ccccc3)CS[C@H]12)c1csc(N)n1)C(=O)O; experiment: purified protein, by the assay type; conditions: other: substrate hydrolysis, 25°C, 0.1 M phosphate buffer pH 7.0, 50 mM NaHCO3, error = 95% CI
[7] = system: CCN1CCN(C(=O)N[C@@H](C(=O)N[C@@H]2C(=O)N3[C@@H]2SC(C)(C)[C@@H]3C(=O)O)c2ccccc2)C(=O)C1=O; experiment: purified protein, by the assay type; conditions: other: substrate hydrolysis, 25°C, 0.1 M phosphate buffer pH 7.0, 50 mM NaHCO3, error = 95% CI
[8] = system: CO/N=C(\C(=O)N[C@@H]1C(=O)N2C(C(=O)[O-])=C(C[N+]3(C)CCCC3)CS[C@H]12)c1csc(N)n1; experiment: purified protein, by the assay type; conditions: other: substrate hydrolysis, 25°C, 0.1 M phosphate buffer pH 7.0, 50 mM NaHCO3, error = 95% CI
[9] = system: C[C@@H](O)[C@H]1C(=O)N2C(C(=O)O)=C(S[C@@H]3CN[C@H](C(=O)N(C)C)C3)[C@H](C)[C@H]12; experiment: purified protein, by the assay type; conditions: other: substrate hydrolysis, 25°C, 0.1 M phosphate buffer pH 7.0, 50 mM NaHCO3, error = 95% CI
[10] = system: C[C@@H](O)[C@H]1C(=O)N2C(C(=O)O)=C(SCCN=CN)C[C@H]12; experiment: purified protein, by the assay type; conditions: other: substrate hydrolysis, 25°C, 0.1 M phosphate buffer pH 7.0, 50 mM NaHCO3, error = 95% CI
[11] = system: CC1(C)S[C@@H]2[C@H](NC(=O)[C@H](N)c3ccccc3)C(=O)N2[C@H]1C(=O)O; experiment: purified protein, by the assay type; conditions: other: substrate hydrolysis, 25°C, 0.1 M phosphate buffer pH 7.0, 50 mM NaHCO3, error = 95% CI
[12] = system: O=C(Cc1cccs1)N[C@@H]1C(=O)N2C(C(=O)O)=C(/C=C/c3ccc([N+](=O)[O-])cc3[N+](=O)[O-])CS[C@H]12; experiment: purified protein, by the assay type; conditions: other: substrate hydrolysis, 25°C, 0.1 M phosphate buffer pH 7.0, 50 mM NaHCO3, error = 95% CI
crystal structure = molecular target: the molecule itself; experiment: crystal structure

How did the MIC [1] turn out when `CO/N=C(\C(=O)N[C@@H]1C(=O)N2C(C(=O)O)=C(COC(C)=O)CS[C@H]12)c1csc(N)n1` [FOT, cefotaxime] was run?
Its MIC is 0.25 µg/mL (≈ 0.549 µM).

And the MIC [2]?
The MIC was 0.25 µg/mL (≈ 0.549 µM).

And the MIC [3]?
The MIC was 0.25 µg/mL (≈ 0.549 µM).

And the MIC (E. coli TOP10; Table 3, read-out: MIC)?
Its MIC is 0.12 µg/mL (≈ 0.263 µM).

And the MIC (E. coli MG1655 (MP100); Table 6, MP100, read-out: MIC)?
The MIC was 0.12 µg/mL (≈ 0.263 µM).

And the MIC [4]?
Its MIC is 0.5 µg/mL (≈ 1.1 µM).

What about the MIC [5] of the same molecule?
The MIC was 1 µg/mL (≈ 2.2 µM).

What does the source list for `C[C@@H](O)[C@H]1C(=O)N2C(C(=O)O)=C(SCCN=CN)C[C@H]12` [IMI, imipenem]?
Km (OXA-48:P68A): 4.2 ± 0.9 µM; kcat (OXA-48:P68A): 0.80 ± 0.04 s⁻¹; MIC [1]: 1 µg/mL (≈ 3.34 µM); MIC [2]: 0.25 µg/mL (≈ 0.835 µM); MIC [3]: 0.25 µg/mL (≈ 0.835 µM); MIC (E. coli TOP10): 0.25 µg/mL (≈ 0.835 µM); MIC (E. coli MG1655 (MP100)): 0.12 µg/mL (≈ 0.401 µM); MIC [4]: 1 µg/mL (≈ 3.34 µM); MIC [5]: 0.25 µg/mL (≈ 0.835 µM)

Which Km (OXA-48:P68A) does the source give for `C[C@@H](O)[C@H]1C(=O)N2C(C(=O)O)=C(S[C@@H]3CN[C@H](C(=O)N(C)C)C3)[C@H](C)[C@H]12` [MEM, meropenem] here?
Its Km is 3 ± 1 µM.

And the kcat (OXA-48:P68A)?
Its kcat is “(8 ± 0.8) × 10^−4 s^−1”.

And the MIC [1]?
Its MIC is 0.25 µg/mL (≈ 0.652 µM).

And the MIC [2]?
The MIC was 0.03 µg/mL (≈ 0.0782 µM).

What about the MIC [3] of the same molecule?
The MIC was 0.06 µg/mL (≈ 0.156 µM).

What about the MIC (E. coli TOP10; Table 3, read-out: MIC) of the same molecule?
Its MIC is 0.03 µg/mL (≈ 0.0782 µM).

And the MIC (E. coli MG1655 (MP100); Table 6, MP100, read-out: MIC)?
The MIC was 0.03 µg/mL (≈ 0.0782 µM).

What about the MIC [4] of the same molecule?
Its MIC is 0.25 µg/mL (≈ 0.652 µM).

And the MIC [5]?
The MIC was 0.06 µg/mL (≈ 0.156 µM).

What does the source list for `O=C(Cc1cccs1)N[C@@H]1C(=O)N2C(C(=O)O)=C(/C=C/c3ccc([N+](=O)[O-])cc3[N+](=O)[O-])CS[C@H]12` [NIT, nitrocefin]?
kcat (OXA-48:P68A): 37 ± 2 s⁻¹; Km (OXA-48:P68A; read-out: Km): 53 ± 8 µM

How did the Km (OXA-48:P68A; read-out: Km) turn out when `CCN1CCN(C(=O)N[C@@H](C(=O)N[C@@H]2C(=O)N3[C@@H]2SC(C)(C)[C@@H]3C(=O)O)c2ccccc2)C(=O)C1=O` [PIP, piperacillin] was run?
The Km was 290 ± 67 µM.

What does the source list for `CO[C@@]1(NC(=O)C(C(=O)O)c2ccsc2)C(=O)N2[C@@H](C(=O)O)C(C)(C)S[C@@H]21` (stereo partly drawn) [TRM, temocillin]?
MIC [1]: 256 µg/mL (≈ 618 µM); MIC [2]: 64 µg/mL (≈ 154 µM); MIC [3]: 32 µg/mL (≈ 77.2 µM); MIC (E. coli TOP10; Table 3, read-out: MIC): 16 µg/mL (≈ 38.6 µM); MIC (E. coli MG1655 (MP100); Table 6, MP100, read-out: MIC): 8 µg/mL (≈ 19.3 µM); MIC [4]: 256 µg/mL (≈ 618 µM); MIC [5]: 128 µg/mL (≈ 309 µM)

Which results are given for OXA-48 (Klebsiella pneumoniae)?
Km [6]: 300 ± 150 µM; kcat [6]: 3 ± 0.8 s⁻¹; kcat/Km [6]: 10000 ± 8000 M⁻¹ s⁻¹; Km [7]: 898 ± 155 µM; kcat [7]: 3.9 ± 0.5 s⁻¹; kcat/Km [7]: 4000 ± 1000 M⁻¹ s⁻¹; Km [8]: 1,678 ± 686 µM; kcat [8]: 1.7 ± 0.6 s⁻¹; kcat/Km [8]: 1000 ± 800 M⁻¹ s⁻¹; Km [9]: 4 ± 1 µM; kcat [9]: 0.71 ± 0.02 s⁻¹; kcat/Km [9]: 177000 ± 50000 M⁻¹ s⁻¹; Km [10]: 13 ± 2 µM; kcat [10]: 4.8 ± 0.2 s⁻¹; kcat/Km [10]: 365000 ± 71000 M⁻¹ s⁻¹; Km [11]: 370 ± 70 µM; kcat [11]: 608 ± 53 s⁻¹; kcat/Km [11]: 1.64e+06 ± 455000 M⁻¹ s⁻¹; Km [12]: 226 ± 34 µM; kcat [12]: 141 ± 12 s⁻¹; kcat/Km [12]: 624000 ± 148000 M⁻¹ s⁻¹

B1: OXA-48:P68A (enzyme)
chain: KEWQENKSWNAHFTEHKSQGVVVLWNENKQQGFTNNLKRANQAFLAASTFKIPNSLIALDLGVVKDEHQVFKWDGQTRDIATWNRDHNLITAMKYSVVPVYQEFARQIGEARMSKMLHAFDYGNEDISGNVDSFWLDGGIRISATEQISFLRKLYHNKLHVSERSQRIVKQAMLTEANGDYIIRAKTGYSTRIEPKIGWWVGWVELDDNVWFFAMNMDMPTSDGLGLRQAITKEVLKQEKIIP
notes: also called OXA-48:P68A-CAZ; OXA-48:P68A-AVI; source: E. coli Rosetta 2(DE3)/pLysS, purified (>95% purity)
Does B1 bind (crystal structure)?
Result: binds
